# Where “and” joins values, the source holds several entries; their conditions need not be identical. Identical values can stand only once.
# Experiments:
# 5-HT5A = 5-HT5A (Homo sapiens, UniProt P47898); assay: NIMH PDSP competitive binding, 5-HT5A; conditions: [3H]LSD; cloned receptor; mean ± SEM
# 5-HT1B = 5-HT1B (Homo sapiens, UniProt P28222); assay: NIMH PDSP competitive binding, 5-HT1B; conditions: [3H]GR125743; cloned receptor; mean ± SEM
# C57BL/6J mice [1] = assay: Head twitch response; format: in vivo, mouse
# H1 = H1 (Homo sapiens, UniProt P35367); assay: NIMH PDSP competitive binding, H1
# H2 = H2 (Homo sapiens, UniProt P25021); assay: NIMH PDSP competitive binding, H2; conditions: [3H]tiotidine; cloned receptor; mean ± SEM
# α2A = α2A (Homo sapiens, UniProt P08913); assay: NIMH PDSP competitive binding, α2A; conditions: [3H]rauwolscine; cloned receptor; mean ± SEM
# H3 = H3 (Cavia porcellus, UniProt Q9JI35); assay: NIMH PDSP competitive binding, H3; conditions: primary binding assay
# α2B = α2B (Homo sapiens, UniProt P18089); assay: NIMH PDSP competitive binding, α2B; conditions: [3H]rauwolscine; cloned receptor; mean ± SEM
# 5-HT2A [2] = target: T1, 5-HT2A (Homo sapiens, UniProt P28223); assay: Gq-mediated calcium flux in HEK293 cells, h5-HT2A; format: cell-based
# β1 [3] = target: β1 (Homo sapiens, UniProt P08588); assay: NIMH PDSP competitive binding, β1; conditions: primary binding assay
# β3 = β3 (Homo sapiens, UniProt P13945); assay: NIMH PDSP competitive binding, β3; conditions: [3H]CGP12177; cloned receptor; mean ± SEM
# α1D = α1D (Homo sapiens, UniProt P25100); assay: NIMH PDSP competitive binding, α1D; conditions: [3H]prazosin; cloned receptor
# 5-HT6 = 5-HT6 (Homo sapiens, UniProt P50406); assay: NIMH PDSP competitive binding, 5-HT6; conditions: [3H]LSD; cloned receptor; mean ± SEM
# 5-HT2B [4] = target: T2, 5-HT2B (Homo sapiens, UniProt P41595); assay: Gq-mediated calcium flux in HEK293 cells, h5-HT2B; format: cell-based
# D5 = D5 (Homo sapiens, UniProt P21918); assay: NIMH PDSP competitive binding, D5; conditions: [3H]SCH23390; cloned receptor; mean ± SEM
# α1A = α1A (Homo sapiens, UniProt P35348); assay: NIMH PDSP competitive binding, α1A; conditions: [3H]prazosin; cloned receptor
# β2 [5] = target: β2 (Homo sapiens, UniProt P07550); assay: NIMH PDSP competitive binding, β2
# 5-HT7 = 5-HT7 (Homo sapiens, UniProt P34969); assay: NIMH PDSP competitive binding, 5-HT7; conditions: [3H]LSD; cloned receptor; mean ± SEM
# D3 = D3 (Homo sapiens, UniProt P35462); assay: NIMH PDSP competitive binding, D3; conditions: [3H]N-methylspiperone; cloned receptor; mean ± SEM
# 5-HT1D = 5-HT1D (Homo sapiens, UniProt P28221); assay: NIMH PDSP competitive binding, 5-HT1D; conditions: [3H]GR125743; cloned receptor; mean ± SEM
# α1B = α1B (Homo sapiens, UniProt P35368); assay: NIMH PDSP competitive binding, α1B; conditions: [3H]prazosin; cloned receptor; mean ± SEM
# H4 = H4 (Homo sapiens, UniProt Q9H3N8); assay: NIMH PDSP competitive binding, H4
# human 5-HT2C INI = target: T3, human 5-HT2C INI (Homo sapiens, UniProt P28335); assay: Gq-mediated calcium flux in HEK293 cells, h5-HT2C; format: cell-based
# T3 sequence (P28335 33-458): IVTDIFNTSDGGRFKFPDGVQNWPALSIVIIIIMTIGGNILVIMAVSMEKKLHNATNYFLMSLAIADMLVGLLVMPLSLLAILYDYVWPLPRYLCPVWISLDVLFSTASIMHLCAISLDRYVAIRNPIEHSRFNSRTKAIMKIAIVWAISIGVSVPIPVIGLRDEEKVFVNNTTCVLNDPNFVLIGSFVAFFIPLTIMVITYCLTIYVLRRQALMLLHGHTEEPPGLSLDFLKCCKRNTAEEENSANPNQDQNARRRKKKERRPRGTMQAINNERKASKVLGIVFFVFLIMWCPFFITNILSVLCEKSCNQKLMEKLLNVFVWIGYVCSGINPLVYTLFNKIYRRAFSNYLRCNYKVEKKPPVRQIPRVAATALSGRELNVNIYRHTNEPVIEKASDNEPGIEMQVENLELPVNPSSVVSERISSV
# 5-HT2A [6] = target: T1, 5-HT2A; assay: NIMH PDSP competitive binding, 5-HT2A; conditions: [3H]ketanserin; cloned receptor; mean ± SEM
# 5-HT2C = 5-HT2C (Homo sapiens, UniProt P28335); assay: NIMH PDSP competitive binding, 5-HT2C
# 5-HT1A = 5-HT1A (Homo sapiens, UniProt P08908); assay: NIMH PDSP competitive binding, 5-HT1A; conditions: [3H]8-OH-DPAT; cloned receptor; mean ± SEM
# D2 = D2 (Homo sapiens, UniProt P14416); assay: NIMH PDSP competitive binding, D2; conditions: [3H]N-methylspiperone; cloned receptor; mean ± SEM
# D4 = D4 (Homo sapiens, UniProt P21917); assay: NIMH PDSP competitive binding, D4; conditions: [3H]N-methylspiperone; cloned receptor; mean ± SEM
# D1 = D1 (Homo sapiens, UniProt P21728); assay: NIMH PDSP competitive binding, D1; conditions: [3H]SCH23390; cloned receptor; mean ± SEM
# α2C = α2C (Homo sapiens, UniProt P18825); assay: NIMH PDSP competitive binding, α2C; conditions: [3H]rauwolscine; cloned receptor; mean ± SEM
# 5-HT2B [7] = target: T2, 5-HT2B; assay: NIMH PDSP competitive binding, 5-HT2B; conditions: [3H]LSD; cloned receptor; mean ± SEM
# [8] = system: rats trained to discriminate saline from LSD; conditions: ref Huang et al. 1994, cited from earlier work; for potency in rats trained to discriminate saline from LSD: rat drug discrimination
# [9] = system: 5-HT2A sites labeled with [3H]ketanserin; conditions: rat frontal cortex / forebrain homogenate; ref Huang et al. 1994; cited from earlier work
# human subjects = conditions: cited from earlier work
# α2-adrenoceptors = conditions: [3H]clonidine, rat cortex; ref Leysen 1989; Marona-Lewicka and Nichols 1995; cited from earlier work
# C57BL/6J mice [10] = conditions: HTR under equivalent conditions; ref Halberstadt and Geyer 2013; cited from earlier work
# H1 receptors = conditions: ref Nichols et al. 2002; Rickli et al. 2015; cited from earlier work
# [125I]DOI-labeled sites [11] = read-out: Ki at [125I]DOI-labeled sites; ref Huang et al. 1994; cited from earlier work
# β1 [12] = conditions: ref Nichols et al. 2002; cited from earlier work
# β2 [13] = conditions: ref Nichols et al. 2002; cited from earlier work
# [125I]DOI-labeled sites [14] = Binding to [125I]DOI-labeled sites; design: species or system rat; conditions: from Ki values of Huang et al. 1994
# [15] = Ca2+ mobilization, HEK293 cells
# [16] = percent 5-HT maximum response, mean ± SEM
# [17] = IP, first 20-min of the test session
# T2 sequence (P41595 whole entry): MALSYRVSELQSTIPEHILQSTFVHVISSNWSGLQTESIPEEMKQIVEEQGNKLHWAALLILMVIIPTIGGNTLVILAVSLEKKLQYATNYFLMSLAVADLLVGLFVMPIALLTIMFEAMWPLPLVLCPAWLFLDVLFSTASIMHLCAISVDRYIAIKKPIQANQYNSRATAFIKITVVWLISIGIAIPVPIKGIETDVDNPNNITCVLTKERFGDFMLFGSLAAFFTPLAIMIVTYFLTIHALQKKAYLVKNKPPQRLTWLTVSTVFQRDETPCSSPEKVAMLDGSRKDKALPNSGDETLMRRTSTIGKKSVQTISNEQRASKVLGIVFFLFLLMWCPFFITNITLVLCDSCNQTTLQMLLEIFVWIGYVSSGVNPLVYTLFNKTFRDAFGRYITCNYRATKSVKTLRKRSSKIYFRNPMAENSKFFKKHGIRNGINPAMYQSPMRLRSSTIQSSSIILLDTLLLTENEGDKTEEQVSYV
# T1 sequence (P28223 whole entry): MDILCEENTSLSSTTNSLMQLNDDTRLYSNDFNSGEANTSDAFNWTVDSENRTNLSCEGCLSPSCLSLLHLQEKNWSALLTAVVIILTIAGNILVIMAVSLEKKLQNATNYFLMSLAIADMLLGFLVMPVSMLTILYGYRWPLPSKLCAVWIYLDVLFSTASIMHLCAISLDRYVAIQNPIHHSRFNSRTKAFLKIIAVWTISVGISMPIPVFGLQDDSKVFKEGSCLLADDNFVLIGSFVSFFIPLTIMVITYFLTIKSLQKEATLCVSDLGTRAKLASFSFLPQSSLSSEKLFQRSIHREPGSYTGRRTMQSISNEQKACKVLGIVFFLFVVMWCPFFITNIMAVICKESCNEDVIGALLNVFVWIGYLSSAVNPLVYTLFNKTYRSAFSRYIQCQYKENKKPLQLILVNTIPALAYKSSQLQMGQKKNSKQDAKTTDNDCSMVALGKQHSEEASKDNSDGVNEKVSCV
# Chain of H4 (Q9H3N8 whole entry): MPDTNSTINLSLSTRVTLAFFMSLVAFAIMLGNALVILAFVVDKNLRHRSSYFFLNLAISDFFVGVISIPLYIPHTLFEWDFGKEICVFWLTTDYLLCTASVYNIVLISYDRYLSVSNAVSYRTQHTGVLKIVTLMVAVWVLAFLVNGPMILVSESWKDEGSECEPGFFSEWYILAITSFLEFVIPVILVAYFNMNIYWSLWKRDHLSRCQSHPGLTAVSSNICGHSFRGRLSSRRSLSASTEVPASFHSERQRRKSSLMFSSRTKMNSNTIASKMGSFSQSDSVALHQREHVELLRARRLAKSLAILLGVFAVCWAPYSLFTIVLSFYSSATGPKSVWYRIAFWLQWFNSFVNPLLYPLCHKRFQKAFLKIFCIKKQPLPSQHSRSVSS
# Chain of β2 (Homo sapiens, UniProt P07550) (P07550 whole entry): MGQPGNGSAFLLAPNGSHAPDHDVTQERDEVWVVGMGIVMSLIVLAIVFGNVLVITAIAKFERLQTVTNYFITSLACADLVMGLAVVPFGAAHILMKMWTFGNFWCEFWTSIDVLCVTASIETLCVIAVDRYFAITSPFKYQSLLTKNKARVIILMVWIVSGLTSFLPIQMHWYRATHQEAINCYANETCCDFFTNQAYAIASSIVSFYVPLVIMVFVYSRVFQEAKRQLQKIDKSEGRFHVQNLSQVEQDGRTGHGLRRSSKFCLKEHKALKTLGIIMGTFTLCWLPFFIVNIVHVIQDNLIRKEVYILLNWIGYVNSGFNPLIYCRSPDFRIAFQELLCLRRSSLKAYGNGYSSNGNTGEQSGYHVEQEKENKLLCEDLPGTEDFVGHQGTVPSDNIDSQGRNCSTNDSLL
# Chain of H1 (P35367 whole entry): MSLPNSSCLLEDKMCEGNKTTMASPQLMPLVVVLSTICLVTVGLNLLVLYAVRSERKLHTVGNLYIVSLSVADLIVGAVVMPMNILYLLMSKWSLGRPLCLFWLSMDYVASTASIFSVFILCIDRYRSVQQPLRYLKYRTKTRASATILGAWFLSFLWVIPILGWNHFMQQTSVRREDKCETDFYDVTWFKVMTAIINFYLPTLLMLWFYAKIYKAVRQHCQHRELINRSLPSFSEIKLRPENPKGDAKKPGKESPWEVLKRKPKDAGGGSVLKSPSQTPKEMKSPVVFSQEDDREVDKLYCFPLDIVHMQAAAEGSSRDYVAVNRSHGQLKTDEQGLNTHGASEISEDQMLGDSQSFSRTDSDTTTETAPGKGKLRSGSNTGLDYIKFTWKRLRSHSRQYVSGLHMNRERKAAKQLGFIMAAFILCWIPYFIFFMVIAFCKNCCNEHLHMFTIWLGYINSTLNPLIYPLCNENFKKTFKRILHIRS
# Chain of α1A (P35348 whole entry): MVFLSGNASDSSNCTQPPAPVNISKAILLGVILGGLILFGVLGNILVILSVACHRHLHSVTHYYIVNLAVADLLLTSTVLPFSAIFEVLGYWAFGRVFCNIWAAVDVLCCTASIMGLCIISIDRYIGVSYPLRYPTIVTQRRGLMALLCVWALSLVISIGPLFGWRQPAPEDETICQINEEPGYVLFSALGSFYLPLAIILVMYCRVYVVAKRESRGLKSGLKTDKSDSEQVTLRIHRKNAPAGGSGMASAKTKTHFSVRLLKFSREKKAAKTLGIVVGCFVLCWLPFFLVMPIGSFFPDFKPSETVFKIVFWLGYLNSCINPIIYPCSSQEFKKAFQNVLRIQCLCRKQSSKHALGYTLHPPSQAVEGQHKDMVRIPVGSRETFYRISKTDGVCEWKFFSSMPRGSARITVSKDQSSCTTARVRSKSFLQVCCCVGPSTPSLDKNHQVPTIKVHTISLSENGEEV
# Chain of α2B (P18089 whole entry): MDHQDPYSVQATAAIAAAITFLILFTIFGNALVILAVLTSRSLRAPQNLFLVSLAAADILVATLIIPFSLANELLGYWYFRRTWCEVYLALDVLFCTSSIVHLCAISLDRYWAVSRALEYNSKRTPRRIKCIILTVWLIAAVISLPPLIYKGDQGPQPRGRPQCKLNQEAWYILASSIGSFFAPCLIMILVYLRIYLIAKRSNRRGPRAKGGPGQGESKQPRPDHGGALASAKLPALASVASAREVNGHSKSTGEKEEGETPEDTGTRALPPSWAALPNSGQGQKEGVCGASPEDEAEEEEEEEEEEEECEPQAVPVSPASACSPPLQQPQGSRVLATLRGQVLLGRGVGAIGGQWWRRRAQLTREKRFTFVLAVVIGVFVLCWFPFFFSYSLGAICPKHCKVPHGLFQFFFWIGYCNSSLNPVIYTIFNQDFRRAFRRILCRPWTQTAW
# Chain of β3 (P13945 whole entry): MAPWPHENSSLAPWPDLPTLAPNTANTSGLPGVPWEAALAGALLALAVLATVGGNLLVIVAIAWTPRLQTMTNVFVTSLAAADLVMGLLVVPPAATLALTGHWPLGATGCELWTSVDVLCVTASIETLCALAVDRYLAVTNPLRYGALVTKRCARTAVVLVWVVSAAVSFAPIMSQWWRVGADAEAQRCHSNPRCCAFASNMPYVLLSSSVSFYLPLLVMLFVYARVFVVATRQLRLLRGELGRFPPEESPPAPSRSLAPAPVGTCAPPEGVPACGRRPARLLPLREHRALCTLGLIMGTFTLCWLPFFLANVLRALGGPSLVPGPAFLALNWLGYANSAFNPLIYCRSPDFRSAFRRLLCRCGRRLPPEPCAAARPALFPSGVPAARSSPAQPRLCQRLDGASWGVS
# Chain of 5-HT1A (P08908 whole entry): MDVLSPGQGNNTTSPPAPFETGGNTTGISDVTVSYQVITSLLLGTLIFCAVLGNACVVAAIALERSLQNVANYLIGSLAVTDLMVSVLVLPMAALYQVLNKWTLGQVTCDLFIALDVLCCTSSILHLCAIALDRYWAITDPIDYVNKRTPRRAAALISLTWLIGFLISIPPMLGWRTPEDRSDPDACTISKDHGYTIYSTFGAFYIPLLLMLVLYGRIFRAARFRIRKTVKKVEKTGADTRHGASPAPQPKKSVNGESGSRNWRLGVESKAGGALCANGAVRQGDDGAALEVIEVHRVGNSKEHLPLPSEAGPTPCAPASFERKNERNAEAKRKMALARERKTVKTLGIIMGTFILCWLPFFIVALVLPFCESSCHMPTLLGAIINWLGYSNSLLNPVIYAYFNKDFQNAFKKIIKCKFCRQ
# Chain of 5-HT1B (P28222 whole entry): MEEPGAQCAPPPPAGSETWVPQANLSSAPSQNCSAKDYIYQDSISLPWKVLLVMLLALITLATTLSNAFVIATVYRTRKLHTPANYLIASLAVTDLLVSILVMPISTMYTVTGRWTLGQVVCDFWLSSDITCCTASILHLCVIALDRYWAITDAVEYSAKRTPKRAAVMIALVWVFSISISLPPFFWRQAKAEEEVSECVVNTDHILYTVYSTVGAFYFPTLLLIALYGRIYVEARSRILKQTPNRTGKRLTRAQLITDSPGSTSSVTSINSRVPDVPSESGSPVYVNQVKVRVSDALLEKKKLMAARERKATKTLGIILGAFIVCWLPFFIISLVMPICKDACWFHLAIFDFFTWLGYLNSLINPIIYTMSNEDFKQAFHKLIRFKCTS
# Chain of D1 (P21728 whole entry): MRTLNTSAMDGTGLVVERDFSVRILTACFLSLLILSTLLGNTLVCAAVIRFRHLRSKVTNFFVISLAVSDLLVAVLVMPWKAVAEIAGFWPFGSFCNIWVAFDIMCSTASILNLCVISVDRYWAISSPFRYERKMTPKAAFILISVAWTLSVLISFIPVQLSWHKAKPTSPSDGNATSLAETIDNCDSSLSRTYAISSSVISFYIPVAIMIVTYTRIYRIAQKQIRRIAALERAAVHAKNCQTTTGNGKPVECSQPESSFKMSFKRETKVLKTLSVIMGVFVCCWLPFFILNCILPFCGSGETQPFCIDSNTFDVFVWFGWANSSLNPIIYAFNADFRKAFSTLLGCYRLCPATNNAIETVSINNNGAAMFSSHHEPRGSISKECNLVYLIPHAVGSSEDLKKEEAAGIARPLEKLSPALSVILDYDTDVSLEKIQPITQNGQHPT
smiles,measurement,setting,value
"CCN(C(=O)[C@@H]1C=C2c3cccc4[nH]cc(c34)C[C@H]2N(C)C1)C1CC1 [ECPLA, N-ethyl-N-cyclopropyl lysergamide]",Ki,5-HT5A,8.6 ± 4.2 nM
same,Ki,5-HT1B,42.3 ± 8.7 nM
same,HTR Counts (Mean ± SEM),"C57BL/6J mice [1]; 0.1 mg/kg IP, 30 min",17.7 ± 2.6
same,HTR Counts (Mean ± SEM),"C57BL/6J mice [1]; 0.3 mg/kg IP, 30 min",34.6 ± 5.1
same,HTR Counts (Mean ± SEM),"C57BL/6J mice [1]; 1 mg/kg IP, 30 min",28.2 ± 2.6
same,"ED50, nmol/kg (95% CI)","C57BL/6J mice [1]; IP, entire 30-min test session",317.2 (213.2–471.9) nmol/kg
same,"ED50, μg/kg (95% CI)","C57BL/6J mice [1]; IP, entire 30-min test session",130.2 (87.5–193.7) μg/kg
same,dose of peak HTR response,"C57BL/6J mice [1]; biphasic inverted-U-shaped dose-response, IP",0.3 mg/kg
same,Ki,"H1; [3H]pyrilamine, cloned receptor, IC50 > 10 μM in the primary binding assay",> 10000 nM
same,displacement at 10 μM,"H1; primary binding assay, 10 μM",< 50%
same,Ki,H2,890 ± 137 nM
same,Ki,α2A,144 ± 64 nM
same,displacement at 10 μM,H3,< 50%
same,Ki,α2B,62.3 ± 15.1 nM
same,EC50,5-HT2A [2]; [15],14.6 nM
same,pEC50 ± SEM,5-HT2A [2]; [15],7.84 ± 0.04
same,Emax % 5-HT,5-HT2A [2]; [16],91 % 5-HT and 91 ± 1 % 5-HT
same,displacement at 10 μM,β1 [3],< 50%
same,Ki,β3,2420 ± 639 nM
same,Ki,α1D,> 10000 nM
same,Ki,5-HT6,21.7 ± 4.4 nM
same,EC50,5-HT2B [4]; [15],36.7 nM
same,pEC50 ± SEM,5-HT2B [4]; [15],7.44 ± 0.06
same,Emax % 5-HT,5-HT2B [4]; [16],73 % 5-HT and 73 ± 2 % 5-HT
same,Ki,D5,1500 ± 386 nM
same,Ki,α1A,> 10000 nM
same,Ki,"β2 [5]; [3H]CGP12177, cloned receptor, IC50 > 10 μM in the primary binding assay",> 10000 nM
same,displacement at 10 μM,"β2 [5]; primary binding assay, 10 μM",< 50%
same,Ki,5-HT7,27.3 ± 11.5 nM
same,Ki,D3,104 ± 29 nM
same,Ki,5-HT1D,12.6 ± 1.9 nM
same,Ki,α1B,1950 ± 152 nM
same,Ki,"H4; [3H]histamine, cloned receptor, IC50 > 10 μM in the primary binding assay",> 10000 nM
same,displacement at 10 μM,"H4; primary binding assay, 10 μM",< 50%
same,EC50,human 5-HT2C INI; [15],183 nM
same,pEC50 ± SEM,human 5-HT2C INI; [15],6.74 ± 0.09
same,Emax % 5-HT,human 5-HT2C INI; [16],73 % 5-HT and 73 ± 3 % 5-HT
same,Ki,5-HT2A [6],16.5 ± 6 nM
same,fold lower affinity than LSD for the 5-HT2C receptor,5-HT2C; ECPLA Ki 85.7 nM vs LSD Ki 30 nM,~3 fold
same,Ki,"5-HT2C; [3H]mesulergine, cloned receptor, mean ± SEM",85.7 ± 31.2 nM
same,Ki,5-HT1A,3.2 ± 0.5 nM
same,Ki,D2,150 ± 32 nM
same,Ki,D4,92.3 ± 11.9 nM
same,Ki,D1,502 ± 122 nM
same,Ki,α2C,438 ± 118 nM
same,Ki,5-HT2B [7],5.3 ± 1.3 nM
"CCN(C(=O)[C@@H]1C=C2c3cccc4[nH]cc(c34)C[C@H]2N(C)C1)C(C)C [EIPLA, N-ethyl-N-isopropyl lysergamide]",fold lower potency than LSD in the rat drug discrimination paradigm,[8],~3 fold
same,fold lower affinity than LSD at [3H]ketanserin-labeled 5-HT2A sites,[9],three-fold
"CCCN(C)C(=O)[C@@H]1C=C2c3cccc4[nH]cc(c34)C[C@H]2N(C)C1 [LAMPA, N-methyl-N-propyl lysergamide]",HTR Counts (Mean ± SEM),"C57BL/6J mice [1]; 0.1 mg/kg IP, 20 min",15.8 ± 2.7
same,HTR Counts (Mean ± SEM),"C57BL/6J mice [1]; 0.3 mg/kg IP, 20 min",31.0 ± 2.2
same,HTR Counts (Mean ± SEM),"C57BL/6J mice [1]; 1 mg/kg IP, 20 min",19.5 ± 3.2
same,HTR Counts (Mean ± SEM),"C57BL/6J mice [1]; 3 mg/kg IP, 20 min",7.4 ± 4.3
same,"ED50, nmol/kg (95% CI)",C57BL/6J mice [1]; [17],358.3 (241.1–532.4) nmol/kg
same,"ED50, μg/kg (95% CI)",C57BL/6J mice [1]; [17],115.9 (78.0–172.2) μg/kg
same,effect in hallucinogen-experienced subjects,"human subjects; 100 μg p.o., six subjects, ref Abramson and Rolo 1967",no effect in four subjects and produced effects consistent with a threshold dose of LSD in two subjects
"CCN(CC)C(=O)[C@@H]1C=C2c3cccc4[nH]cc(c34)C[C@H]2N(C)C1 [LSD, (+)-Lysergic acid diethylamide]",Ki,α2-adrenoceptors,37 to 82 nM
same,ED50,C57BL/6J mice [10],132.8 nmol/kg
same,Ki,H1 receptors,1100 to 1500 nM
same,potency in rats trained to discriminate saline from LSD,[8],0.021 mg/kg
same,Ki,[125I]DOI-labeled sites [11],1.43 nM
same,Ki,β1 [12],140 nM
same,Ki,β2 [13],740 nM
same,typical oral doses,"human subjects; oral, humans, ref Shulgin and Shulgin 1997",60 to 200 µg
"CC(C)N(C)C(=O)[C@@H]1C=C2c3cccc4[nH]cc(c34)C[C@H]2N(C)C1 [MIPLA, N-methyl-N-isopropyl lysergamide]",HTR Counts (Mean ± SEM),"C57BL/6J mice [1]; 0.1 mg/kg IP, 30 min",12.3 ± 1.1
same,HTR Counts (Mean ± SEM),"C57BL/6J mice [1]; 0.2 mg/kg IP, 30 min",31.8 ± 1.9
same,HTR Counts (Mean ± SEM),"C57BL/6J mice [1]; 0.4 mg/kg IP, 30 min",26.6 ± 3.1
same,"ED50, nmol/kg (95% CI)","C57BL/6J mice [1]; IP, entire 30-min test session",421.7 (360.5–493.1) nmol/kg
same,"ED50, μg/kg (95% CI)","C57BL/6J mice [1]; IP, entire 30-min test session",136.4 (116.6–159.5) μg/kg
same,affinity relative to LSD at [125I]DOI-labeled sites,[125I]DOI-labeled sites [14],about 82%
same,potency in rats trained to discriminate saline from LSD,[8],0.036 mg/kg
same,Ki,[125I]DOI-labeled sites [11],1.75 nM
same,fold lower affinity than LSD at [3H]ketanserin-labeled 5-HT2A sites,[9],6 fold
same,doses producing LSD-like psychedelic effects,"human subjects; human subjects, ref Shulgin 2016",180 to 300 µg
same,potency as a psychedelic in man relative to LSD,human subjects; ref Shulgin 2016,one-third
